Tests used:
Assay in all cases: relative viability (nuclei count vs DMSO), 5 days (fraction); higher = more cells survive
Vemurafenib + Tozasertib = compound: CCCS(=O)(=O)Nc1ccc(F)c(C(=O)c2c[nH]c3ncc(-c4ccc(Cl)cc4)cc23)c1F [Vemurafenib] + Cc1cc(Nc2cc(N3CCN(C)CC3)nc(Sc3ccc(NC(=O)C4CC4)cc3)n2)n[nH]1 [Tozasertib] (partner 0.1 µM)
Summary of the method: (§1)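 Lung cancer cell lines in 1536-well plates were dosed by pin tool the day after seeding, either with one drug alone or with a fixed anchor-drug dose plus five library-drug doses (not always all listed) in √10 steps. After 5 days, cells were fixed and their nuclei stained in one step (final 0.05% Triton X-100, 1% formaldehyde, 1 ug/ml Hoechst), then counted on 4× images. Relative viability is the nuclei count in treated wells divided by that in vehicle wells. Values are medians of duplicate plates.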

OSI-027 + Trametinib = compound: COc1cccc2cc(-c3nc([C@H]4CC[C@H](C(=O)O)CC4)n4ncnc(N)c34)[nH]c12 [OSI-027] + CC(=O)Nc1cccc(-n2c(=O)n(C3CC3)c(=O)c3c(Nc4ccc(I)cc4F)n(C)c(=O)c(C)c32)c1 [Trametinib] (partner 0.02 µM)
Summary of the method: as §1

OSI-027 + Dasatinib = compound: COc1cccc2cc(-c3nc([C@H]4CC[C@H](C(=O)O)CC4)n4ncnc(N)c34)[nH]c12 [OSI-027] + Cc1nc(Nc2ncc(C(=O)Nc3c(C)cccc3Cl)s2)cc(N2CCN(CCO)CC2)n1 [Dasatinib] (partner 0.075 µM)
Summary of the method: as §1

Alpelisib + OSI-027 = compound: Cc1nc(NC(=O)N2CCC[C@H]2C(N)=O)sc1-c1ccnc(C(C)(C)C(F)(F)F)c1 [Alpelisib] + COc1cccc2cc(-c3nc([C@H]4CC[C@H](C(=O)O)CC4)n4ncnc(N)c34)[nH]c12 [OSI-027] (partner 0.5 µM)
Summary of the method: as §1

Cell Line | relative viability (Vemurafenib + Tozasertib; first compound 0.03162 µM) | relative viability (Vemurafenib + Tozasertib; first compound 0.1 µM) | relative viability (Vemurafenib + Tozasertib; first compound 0.3162 µM) | relative viability (Vemurafenib + Tozasertib; first compound 1 µM) | relative viability (OSI-027 + Trametinib; first compound 0.01 µM) | relative viability (OSI-027 + Trametinib; first compound 0.03162 µM) | relative viability (OSI-027 + Trametinib; first compound 0.1 µM) | relative viability (OSI-027 + Trametinib; first compound 0.3162 µM) | relative viability (OSI-027 + Trametinib; first compound 1 µM) | relative viability (OSI-027 + Dasatinib; first compound 0.01 µM) | relative viability (OSI-027 + Dasatinib; first compound 0.03162 µM) | relative viability (OSI-027 + Dasatinib; first compound 0.1 µM) | relative viability (OSI-027 + Dasatinib; first compound 0.3162 µM) | relative viability (OSI-027 + Dasatinib; first compound 1 µM) | relative viability (Alpelisib + OSI-027; first compound 0.04 µM) | relative viability (Alpelisib + OSI-027; first compound 0.1265 µM) | relative viability (Alpelisib + OSI-027; first compound 0.4 µM) | relative viability (Alpelisib + OSI-027; first compound 1.265 µM) | relative viability (Alpelisib + OSI-027; first compound 4 µM)
NCI-H2342 | 0.477 | 0.478 | 0.629 | 0.417 | 0.802 | 0.816 | 0.724 | 0.687 | 0.556 | 0.316 | 0.278 | 0.314 | 0.296 | 0.316 | 0.626 | 0.594 | 0.553 | 0.559 | 0.421
SW 1573 | 0.162 | 0.192 | 0.193 | 0.26 | 0.711 | 0.543 | 0.491 | 0.409 | 0.411 | 0.379 | 0.456 | 0.477 | 0.494 | 0.331 | 0.661 | 0.438 | 0.571 | 0.404 | 0.337
NCI-H1792 | – | – | – | – | 0.528 | 0.303 | 0.412 | 0.408 | 0.219 | 0.664 | 0.617 | 0.818 | 0.7 | 0.211 | 0.653 | 0.866 | 0.677 | 0.44 | 0.292
LOU-NH91 | 0.599 | – | – | 0.705 | 0.766 | 0.785 | 0.66 | 0.591 | 0.579 | 0.533 | 0.542 | 0.471 | 0.407 | 0.392 | 0.754 | 0.601 | 0.638 | 0.543 | 0.49
LC-2-ad | 0.396 | 0.466 | – | 0.44 | 0.903 | 0.872 | 0.945 | 0.927 | 0.694 | 0.585 | 0.537 | 0.494 | 0.455 | 0.333 | 0.783 | 0.692 | 0.712 | 0.478 | 0.416
HOP-62 | 0.418 | 0.372 | 0.332 | 0.389 | 0.383 | 0.347 | 0.375 | 0.329 | 0.294 | 0.6 | 0.675 | 0.591 | 0.556 | 0.301 | 0.822 | 0.793 | 0.949 | 0.626 | 0.589
NCI-H650 | 0.696 | 0.703 | – | 0.614 | 0.915 | 1.11 | 0.909 | 0.851 | 0.454 | 0.405 | 0.464 | 0.336 | 0.347 | 0.311 | 0.552 | 0.435 | 0.488 | 0.357 | 0.325
NCI-H1651 | 0.605 | 0.594 | 0.636 | 0.57 | 0.829 | 0.736 | 0.838 | 0.805 | 0.607 | 0.405 | 0.325 | 0.352 | 0.358 | 0.213 | 0.638 | 0.688 | 0.646 | 0.569 | 0.473
CAL-12T | 0.31 | 0.289 | 0.346 | 0.26 | 0.315 | 0.334 | 0.336 | 0.235 | 0.242 | 0.4 | 0.376 | 0.367 | 0.36 | 0.148 | 0.67 | 0.449 | 0.823 | 0.411 | 0.403
LK-2 | 0.158 | 0.177 | 0.187 | 0.155 | 0.766 | 0.578 | 0.594 | 0.406 | 0.221 | 0.343 | 0.266 | 0.24 | 0.203 | 0.225 | 0.215 | 0.208 | 0.16 | 0.142 | 0.158
EKVX | 0.351 | – | 0.383 | 0.326 | 0.413 | 0.359 | 0.3 | 0.293 | 0.313 | 0.516 | 0.472 | 0.515 | 0.429 | 0.316 | 0.594 | 0.531 | 0.773 | 0.496 | 0.356
EMC-BAC-2 | 0.303 | 0.28 | 0.212 | 0.237 | 0.857 | 0.927 | 0.816 | 0.797 | 0.503 | 0.296 | 0.311 | 0.308 | 0.249 | 0.225 | 0.368 | 0.329 | 0.334 | 0.285 | 0.218
NCI-H520 | 0.529 | 0.411 | 0.435 | 0.415 | 0.644 | 0.606 | 0.563 | 0.379 | 0.188 | 0.254 | 0.192 | 0.143 | 0.133 | 0.129 | 0.21 | 0.239 | 0.229 | 0.188 | 0.189
NCI-H322M | 0.426 | – | – | 0.446 | 0.509 | 0.543 | 0.496 | 0.482 | 0.455 | 0.252 | 0.236 | 0.224 | 0.233 | 0.248 | 0.56 | 0.527 | 0.515 | 0.36 | 0.41
COR-L 105 | 0.394 | – | – | 0.433 | 0.406 | 0.396 | 0.394 | 0.376 | 0.459 | 0.322 | 0.328 | 0.299 | 0.236 | 0.243 | 0.715 | 0.567 | 0.846 | 0.527 | 0.513
NCI-H2170 | 0.637 | 0.617 | 0.751 | 0.679 | 1.02 | 0.901 | 0.807 | 0.746 | 0.267 | 0.635 | 0.506 | 0.506 | 0.56 | 0.315 | 0.695 | 0.612 | 0.663 | 0.589 | 0.39
NCI-H358 | 0.122 | 0.107 | 0.107 | 0.111 | 0.114 | 0.129 | 0.123 | 0.112 | 0.117 | 0.154 | 0.183 | 0.158 | 0.127 | 0.132 | 0.558 | 0.767 | 0.572 | 0.292 | 0.121

Source: the supplement of paper PMC10307832
